Values of other authors, collected in patent publication US11000594B2, “Composition comprising an organic liquid diluent and a cellulose ether of very low viscosity” (Dow Global Technologies LLC, priority 2012, dated 2021).
Converted amounts (≈) assume the structure as drawn.

In the case of `COC1=CC(=O)C[C@@H](C)[C@]12Oc1c(Cl)c(OC)cc(OC)c1C2=O` [Griseofulvin], the water solubility is listed as 8.54 µg/mL (≈ 24.2 µM).
